Data: patent publication US9663454B2, “3-aryl propiolonitrile compounds for thiol labeling” (Universite de Strasbourg, priority 2013, dated 2017)

Tests used:
[1] = Selectivity screening of electrophiles on amino acid benzylamides, HPLC; conditions: in 1 hour in PBS (1×, pH 7.6) in presence of the electrophile, 1 mM reagents
Experimental: (§1) Screening for selectivity was done on benzylamides of non-protected amino acids. 100 mM stock solutions of benzylamides of amino acids (in form of TFA salts) and electrophiles (phenylpropiolonitrile and phenylmaleimide) were prepared in DMSO and stored at −20° C. A 100 mM stock solution of benzamide (used as an internal standard) was prepared in distilled water and stocked at −20° C. Analyses of reaction mixtures were conducted with Shimadzu LC with SunFire™ C18 5 μM 4.6×150 mm column (Waters). HPLC parameters were as follows: flow rate 1 mL/min, gradient from 5 to 95% of mobile phase B from 0 to 20 min, followed by 5 min at 95% of mobile phase and post time of 5 min. Mobile phase A was 0.05% TFA in water (mQ) (v/v), and mobile phase B was acetonitrile (HPLC grade). Data were analyzed using Shimadzu analysis software. Signals were normalized according to the area of the peak of the internal standard (benzamide). Areas under the peaks of the amino acid benzylamides were used to calculate their conversion during reaction.
10 μL of the stock solution of amino acid benzamide and 2.5 μL of the stock solution of benzamide were added to a vial containing 977.5 μL of PBS (1×, pH 7.6). The solution was stirred and 10 μL of the stock solution of electrophile were added to give 1 mM final concentrations of reagents and 0.25 mM concentration of benzamide. Aliquots of the reaction mixture (50 μL) were analyzed by HPLC for 1 hour of hydrolysis (injections at 0, 30 and 60 min). Areas under the peaks of the starting materials and hydrolysis products were normalized according to the area of peak of the internal standard. In case of phenylpropiolonitrile, none of amino acid models gave more than 1.6% conversion (see table 3 below). […] Masses of corresponding adducts were detected by mass spectrometry (ESI-LCMS) in some cases (shown in bold, Table 4).

[2] = Hydrolytic stability in PBS, HPLC monitoring; format: physicochemical; conditions: PBS (1×, pH 7.6), 1 mM, 25° C.
Experimental: FIG. 3a-3b: HPLC monitoring of the hydrolysis of phenylmaleimide (2) in PBS (1×, pH 7.6) at 1 mM concentration at 25° C.; the peaks correspond, from the earliest to the latest, to
[drawing 5] conversion was monitored by disappearance of the starting material (a). Pseudo first order rate constant for the reaction was determined by plotting the ln([phenylmaleimide]) versus time and analyzing by linear regression. The constant corresponds to the absolute value of determined slope (b).
FIG. 4: HPLC monitoring of hydrolytic stability of N-(4-(cyanoethynyl)phenyl)acetamide (pNHAc-APN, 11) in PBS (1×, pH 7.6) at 1 mM concentration at 25° C. Conversion was monitored by disappearance of the starting material; the peaks correspond, from the earliest to the latest, to
To a vial containing 980 μL of PBS (1×, pH 7.6), were subsequently added 10 μL of a stock solution of benzamide and 10 μL of a stock solution of electrophile (phenylmaleimide 1 or
[drawing 112] 11) to give final concentration of 1 mM (both internal standard and electrophile). Aliquots of the reaction mixture (50 μL) were analyzed by HPLC for 5 hours of hydrolysis (injection every 30 min). Areas under the peaks of the starting materials and hydrolysis products were normalized according to the area of the peak of the internal standard.

[3] = Selectivity screening of electrophiles, whole panel of amino acid models; conditions: 1 hour, PBS (1×, pH 7.6), 1 mM reagents
Experimental: as §1, with “Areas under the peaks of the amino acid benzylamides were used to calculate their conversion during reaction.” left out
10 μL of the stock solution of amino acid benzamide and 2.5 μL of the stock solution of benzamide were added to a vial containing 977.5 μL of PBS (1×, pH 7.6). […] Aliquots of the reaction mixture (50 μL) were analyzed by HPLC for 1 hour of hydrolysis (injections at 0, 30 and 60 min). […] Masses of corresponding adducts were detected by mass spectrometry (ESI-LCMS) in some cases (shown in bold, Table 4).

BNL CL.2 cells = test: Stability of probes A and B in cellulo (cytometry, microscopy); format: cell-based, mouse; conditions: 1 μM, 2, 6 and 24 hours, FIG. 2
Experimental: FIG. 2a-2c: a) Evolution of intensity of fluorescence over time obtained in cellulo for the same concentration of compounds A and B. • b) Intensity ratio compound B/compound A at different times in cellulo. • c) Microscope pictures of cells treated with compounds A and B, superimposition of TAMRA and Hoechst labeling. White spots around nucleus correspond to hydrolyzed probe. A—arylpropiolonitrile probe, B—maleimide probe.
Normal liver BNL CL.2 cells from mouse were grown in Dulbecco's MEM medium with 1 g/l glucose (Eurobio, Les Ulis, France) supplemented with 10% fetal bovine serum (Perbio, Brebieres, France), 2 mM L-Glutamine, 100 U/mL penicillin, 100 μg/mL streptomycin (Eurobio). Cells were maintained in a 5% CO2 humidified atmosphere at 37° C.
The required amounts of probes A and B were diluted up to 300 μl in MEM complete medium to give final concentration of 1 μM and then added onto the cells. A 5 μg/ml of Hoechst 118 solution was used as a nuclear marker.
The day before experiment, BNL CL.2 cells were seeded in 96-plates (Greiner Bio One, Frickenhausen, Germany) at 2.0×10^4 cells/well in Dulbecco's MEM complete medium. […] After washing with PBS (Eurobio), 5 min incubation with 40 μl trypsine, and addition of 160 μl of PBS EDTA 5 mM, cells were analyzed by flow cytometry on a PCA-96 Guava cytometer (Guava Technologies Merck Millipore, Billerica, Mass., USA) with a green laser.

[4] = Stability of probes A and B in human plasma (fluorescence over time); format: in vitro ADME; conditions: same concentration of A and B, FIG. 1
Description: FIG. 1: Evolution of intensity of fluorescence over time obtained in human plasma for the same concentration of compounds A and B.
The stability of compounds A (according to the invention) and B (reference compound) below was studied in different biological conditions.

Row | Compound | Conversion of AlaNHBn (7c) [1] | Conversion of ArgNHBn (7k) [1] | Conversion of AspNHBn (7l) [1] | Conversion of CysNHBn (7a) [1] | Conversion of GlnNHBn (7i) [1] | Conversion of GlyNHBn (7b) [1] | Conversion of HisNHBn (7h) [1] | Conversion of MetNHBn (7f) [1] | Conversion of SerNHBn (7e) [1] | Conversion of TrpNHBn (7j) [1] | Conversion of TyrNHBn (7g) [1] | Conversion of ValNHBn (7d) [1] | kobs (pseudo first order rate constant of hydrolysis) [2] | hydrolysis (in words) ([2]; up to 5 hours of monitoring) | highest conversion among the amino acid models other than cysteine [3] | stability in cellulo (in words) (BNL CL.2 cells) | stability in human plasma (in words) [4]
1 | O=C1C=CC(=O)N1c1ccccc1 [phenylmaleimide, reference compound] | 0.2% | 2.9% | 1.3% | 100% | 1.7% | 3.3% | 8.5% | 1.9% | 2.8% | 1.0% | 2.4% | 0.9% | 7e-05 s⁻¹ | Noticeable hydrolysis | up to 8.5% |  | 
2 | COc1cc(/N=N/c2ccc([N+](=O)[O-])cc2)c(OC)cc1/N=N/c1ccc(N(C)CCCC(=O)NCCSC(=CC#N)c2ccc(NC(=O)CCCNC(=O)c3ccc(-c4c5ccc(=[N+](C)C)cc-5oc5cc(N(C)C)ccc45)c(C(=O)[O-])c3)cc2)cc1 [A] |  |  |  |  |  |  |  |  |  |  |  |  |  |  |  | far more stable than compound B in cellulo | far more stable than compound B in human plasma
